Experimental data: ChEMBL document CHEMBL5728837, “Non-fused tricyclic compounds” (2021)

Assay: YAP Reporter Assay: HEK293T cells stably transfected with 8XTBD luciferase reporter and pRLTK in 384-well plates were treated with the test compounds, starting from 3 μM (final concentration in assay plate), 1:3 dilution, and 10 points in quadruplicates. Post 24-hr incubation with compounds at 37° C. and 5% CO2, cells were lysed and 8XTBD-driven firefly luciferase and control TK-driven renilla luciferase activities were measured using Promega Dual-Luciferase Reporter Assay System.Reagents: The reagents used for this study are: DMEM: Invitrogen #11960077, Dual-Glo Luciferase Assay System: Promega-E2980, Puromycin Dihydrochloride: Invitrogen-A1113803, 384-well plate: PerkinElmer-6007480, L-GLUTAMINE: Invitrogen-25030164, Hygromycin B: Invitrogen-10687010, and Penicillin-Streptomycin: Merk-TMS-AB2-CMedia: The media used for this assay were: Culture Medium: DMEM+1 ug/mL puromycin+200 ug/mL hygromycin (with 10% FBS+1 mM L-glutamine); and Assay Medium: DMEM (with 10% FBS+1 mM L-glutamine+1× P/S).Cell Plating: The appropriate media was warmed at 37° C. by water bath: Culture Medium, Assay Medium, 1*D-PBS, 0.05% trypsin-EDTA. The cells were trypsinized after removing all media, then washed with 1*sterile D-PBS and then with 2 ml 0.05% trypsin-EDTA. The cells were then incubated at RT for one minute. Then 10 ml/75 cm2 flask Assay Medium was added to each flask. Using a 10 ml pipette, the cells were then gently resuspended in the media, until the clumps completely disappeared. The cells were then transferred into 50 ml centrifuge tubes and were centrifuged at 800 rpm for 5 mins. The medium was removed and the cells were resuspended with Assay Medium. An aliquot of cells was used to count the cell density (cells/nil). The cell suspension was then diluted with Assay Medium to a concentration of 6×10^4 cells/ml. 50 ul cells suspension was then plated to 384-well plate (PerkinElmer-6007480), 3×10^3 cells/well and the cells were incubated in an incubator at 37° C., 5% CO2.Compound Treatment: In the afternoon (incubation of the plate with 3-4 hrs), the test compounds were added by Echo, starting from 3 uM (final concentration in the assay plate), 1:3 dilution, 10 points, quadruplicates. The plate was placed at 37° C., 5% CO2 incubator for 24 hrs.Detection: The Dual-Glo Luciferase Reagent was prepared by transferring the contents of one bottle of Dual-Glo Luciferase Buffer to one bottle of Dual-Glo Luciferase Substrate to create the Dual-Glo Luciferase Reagent. Mixing was performed by inversion until the substrate was thoroughly dissolved. After mixing, the reagent was aliquoted into 15 ml tubes. In the afternoon (24 hrs post compound treatment), the DMEM+ medium in the 384 well plates were aspirated by Microplate Washer.Measuring firefly luciferase activity: 20 ul Dual-Glo Luciferase Reagent was added to the 384-well plates. The plates were protected from light to prevent interference with the assay. The plates were shaken for 1 min followed centrifuging plates at 1000 rpm for 30 seconds. After waiting at least 10 minutes, the firefly luminescence was measured by Envision.Measuring renilla luciferase activity: 20 ul Stop-Glo Reagent was added to the 384-well plates. The plates were shaken for lmin and then centrifuged at 1000 rpm for 30 seconds. After waiting at least 10 minutes, the renilla luminescence was measured by Envision.
Conditions: not given

| IC50 [µM] | Structure (SMILES) |
| --- | --- |
| < 0.1 | OCCn1nnc(-c2ccccc2Nc2ccc(C(F)(F)F)cc2)n1 |

Same assay, conditions: HEK-293T, 24 h

| IC50 | Structure (SMILES) |
| --- | --- |
| < 0.1 µM | OCC(CO)n1nnc(-c2ccccc2Nc2ccc(C(F)(F)F)cc2)n1 |
| in the range around 3 µM | CS(=O)(=O)NCCCn1nnc(-c2ccccc2Nc2ccc(C(F)(F)F)cc2)n1 |
| in the range around 0.55 µM | NS(=O)(=O)Cn1nnc(-c2ccccc2Nc2ccc(C(F)(F)F)cc2)n1 |
| < 0.1 µM | OCCCn1nnc(-c2ccccc2Nc2ccc(C(F)(F)F)cc2)n1 |
| in the range around 0.55 µM | O=C1NCC(Cn2nnc(-c3ccccc3Nc3ccc(C(F)(F)F)cc3)n2)O1 (centres undefined) |
| in the range around 0.55 µM | OCCn1nnc(-c2ccccc2Nc2ccc(SC(F)F)cc2)n1 |
| in the range around 3 µM | COCCn1nnc(-c2ccccc2Nc2cccc(C(F)(F)F)c2)n1 |
| < 0.1 µM | CO[C@@H](C)[C@@H](C)n1nnc(-c2ccccc2Nc2ccc(C(F)(F)F)cc2)n1 |
| in the range around 0.55 µM | COc1ccc(Nc2ccccc2-c2nnn(CCO)n2)cc1 |
| in the range around 0.55 µM | OC1(Cn2nnc(-c3ccccc3Nc3ccc(C(F)(F)F)cc3)n2)CCCN(c2ccccc2)C1 (centres undefined) |
| in the range around 3 µM | OC1(Cn2nnc(-c3ccccc3Nc3ccc(C(F)(F)F)cc3)n2)CCNCC1 |
| < 0.1 µM | CNC(=O)Cn1nnc(-c2ccccc2Nc2ccc(C(F)(F)F)cc2)n1 |
| in the range around 0.55 µM | O=C(Cn1nnc(-c2ccccc2Nc2ccc(C(F)(F)F)cc2)n1)N1CCCC1 |
| < 0.1 µM | CO[C@@H](C)[C@H](C)n1nnc(-c2ccccc2Nc2ccc(C(F)(F)F)cc2)n1 |
| in the range around 0.55 µM | CC(C)C(O)Cn1nnc(-c2ccccc2Nc2ccc(C(F)(F)F)cc2)n1 (centres undefined) |
| in the range around 0.55 µM | CN(C)C(=O)Cn1nnc(-c2ccccc2Nc2ccc(C(F)(F)F)cc2)n1 |
| in the range around 0.55 µM | O=C1NC(Cn2nnc(-c3ccccc3Nc3ccc(C(F)(F)F)cc3)n2)CO1 (centres undefined) |
| in the range around 0.55 µM | CCc1cccc(Nc2ccccc2-c2nnn(CCO)n2)c1 |
| < 0.1 µM | OCCn1nnc(-c2ccccc2Nc2ccc(C(F)(F)F)cc2)n1 |
| in the range around 0.55 µM | NCCCn1nnc(-c2ccccc2Nc2ccc(C(F)(F)F)cc2)n1 |
| in the range around 0.55 µM | Cn1nnc(-c2ccccc2Nc2ccc(C(F)(F)F)cc2)n1 |
| in the range around 3 µM | CN(C)CCCn1nnc(-c2ccccc2Nc2ccc(C(F)(F)F)cc2)n1 |
| < 0.1 µM | OC1(Cn2nnc(-c3ccccc3Nc3ccc(C(F)(F)F)cc3)n2)CCC1 |

| IC50 | Structure (SMILES) |
| --- | --- |
| < 0.1 µM | OC1(Cn2nnc(-c3ccccc3Nc3ccc(C(F)(F)F)cc3)n2)CCCC1 |
| < 0.1 µM | OCC(O)Cn1nnc(-c2ccccc2Nc2ccc(C(F)(F)F)cc2)n1 (centres undefined) |
| in the range around 0.55 µM | CCOC(=O)Cn1cc(-c2ccccc2Nc2cccc(C(F)(F)F)c2)cn1 |
| in the range around 0.55 µM | OC1(Cn2nnc(-c3ccccc3Nc3ccc(C(F)(F)F)cc3)n2)CCCOC1 (centres undefined) |
| in the range around 0.55 µM | FC(F)(F)c1ccc(Nc2ccccc2-c2nnn(CC3CCC3)n2)cc1 |
| in the range around 3 µM | CCN(CC)C(=O)Cn1nnc(-c2ccccc2Nc2ccc(C(F)(F)F)cc2)n1 |
| < 0.1 µM | OCCn1nnc(-c2ccc(Cl)cc2Nc2ccc(C(F)(F)F)cc2)n1 |
| < 0.1 µM | OC1(Cn2nnc(-c3ccccc3Nc3ccc(C(F)(F)F)cc3)n2)CCOC1 (centres undefined) |
| < 0.1 µM | COCC(C)n1nnc(-c2ccccc2Nc2ccc(C(F)(F)F)cc2)n1 (centres undefined) |
| in the range around 0.55 µM | OCCn1cnc(-c2ccccc2Nc2ccc(C(F)(F)F)cc2)c1 |
| < 0.1 µM | C[C@H](O)[C@@H](C)n1nnc(-c2ccccc2Nc2ccc(C(F)(F)F)cc2)n1 |
| in the range around 0.55 µM | OCCn1nnc(-c2ccccc2Nc2ccc(F)cc2F)n1 |
| in the range around 0.55 µM | CCOC(=O)Cn1cnc(-c2ccccc2Nc2ccc(C(F)(F)F)cc2)c1 |
| < 0.1 µM | OCCn1nnc(-c2cc(Cl)ccc2Nc2ccc(C(F)(F)F)cc2)n1 |
| < 0.1 µM | CCOC(=O)Cn1ncc(-c2ccccc2Nc2ccc(C(F)(F)F)cc2)c1C |
| in the range around 3 µM | OCCn1nnc(-c2cnccc2Nc2ccc(C(F)(F)F)cc2)n1 |
| < 0.1 µM | CCOC(=O)Cn1cc(-c2ccccc2Nc2ccc(C(F)(F)F)cc2)cn1 |
| < 0.1 µM | CC(C)(O)Cn1nnc(-c2ccccc2Nc2ccc(C(F)(F)F)cc2)n1 |
| < 0.1 µM | FC(F)(F)c1ccc(Nc2ccccc2-c2nnn(C3CCOC3)n2)cc1 (centres undefined) |
| in the range around 0.55 µM | CC(=O)N1CC(O)(Cn2nnc(-c3ccccc3Nc3ccc(C(F)(F)F)cc3)n2)C1 |
| in the range around 0.55 µM | FC(F)(F)c1ccc(Nc2ccccc2-c2nnn(C3CCCOC3)n2)cc1 (centres undefined) |
| in the range around 3 µM | FC(F)(F)Oc1ccc(Nc2ccccc2-c2nnn(Cc3cccnc3)n2)cc1 |
| in the range around 0.55 µM | FC(F)(F)OCCn1nnc(-c2ccccc2Nc2ccc(C(F)(F)F)cc2)n1 |

| IC50 | Structure (SMILES) |
| --- | --- |
| in the range around 3 µM | CC(=O)OC1(CN2N=C(c3ccccc3Nc3ccc(C(F)(F)F)cc3)NN2)CN(C(C)=O)C1 |
| in the range around 0.55 µM | OCCn1nnc(-c2ccccc2Nc2ccc(Cl)cc2)n1 |
| in the range around 0.55 µM | CNCCn1nnc(-c2ccccc2Nc2ccc(C(F)(F)F)cc2)n1 |
| in the range around 0.55 µM | [N-]=[N+]=Nc1ccc(Nc2ccccc2-c2nnn(CCO)n2)cc1 |
| in the range around 3 µM | CS(=O)(=O)NCCn1nnc(-c2ccccc2Nc2ccc(C(F)(F)F)cc2)n1 |
| in the range around 0.55 µM | CC(=O)N1CCC(O)(Cn2nnc(-c3ccccc3Nc3ccc(C(F)(F)F)cc3)n2)C1 (centres undefined) |
| in the range around 0.55 µM | OCCn1nnc(-c2ccccc2Nc2ccc(Br)cc2)n1 |
| in the range around 0.55 µM | NCCn1cnc(-c2ccccc2Nc2ccc(C(F)(F)F)cc2)n1 |
| < 0.1 µM | FC(F)(F)c1ccc(Nc2ccccc2-c2nnn(C3COCOC3)n2)cc1 |
| in the range around 0.55 µM | CCOC(=O)Cn1nnc(-c2ccccc2Nc2ccc(F)cc2)n1 |
| in the range around 0.55 µM | CN(C)CCn1nnc(-c2ccccc2Nc2ccc(C(F)(F)F)cc2)n1 |
| in the range around 3 µM | CCOC(=O)Cn1cc(-c2ccccc2Nc2cccc(C(F)(F)F)c2)nn1 |
| in the range around 0.55 µM | OCCn1nnc(-c2cc(C(F)F)ccc2Nc2ccc(C(F)(F)F)cc2)n1 |
| in the range around 0.55 µM | CC(N)Cn1nnc(-c2ccccc2Nc2ccc(C(F)(F)F)cc2)n1 (centres undefined) |
| < 0.1 µM | O[C@H]1CCC[C@H]1n1nnc(-c2ccccc2Nc2ccc(C(F)(F)F)cc2)n1 |
| in the range around 0.55 µM | FC(F)(F)c1ccc(Nc2ccccc2-c2nnn(Cc3ccccn3)n2)cc1 |
| in the range around 0.55 µM | OCCn1nnc(-c2ccccc2Nc2ccc(F)c(F)c2)n1 |
| in the range around 0.55 µM | OCCn1nnc(-c2cc(OC(F)(F)F)ccc2Nc2ccc(C(F)(F)F)cc2)n1 |
| in the range around 0.55 µM | OC1(Cn2nnc(-c3ccccc3Nc3ccc(C(F)(F)F)cc3)n2)CCCNC1 (centres undefined) |
| in the range around 0.55 µM | CCOC(=O)Cn1cc(-c2ccccc2Nc2ccc(C(F)(F)F)cc2)c(C)n1 |
| < 0.1 µM | OC(Cn1nnc(-c2ccccc2Nc2ccc(C(F)(F)F)cc2)n1)C1CC1 (centres undefined) |
| < 0.1 µM | OC(Cn1nnc(-c2ccccc2Nc2ccc(C(F)(F)F)cc2)n1)C(F)(F)F (centres undefined) |
